Like-named read-outs stand apart in the source and are kept apart here.
System: HIV-1 (NL4-3 strain)
Experiment: Assay for inhibition of HIV replication (ViKinG; infected MT4-GFP cells)
Format: cell-based
How it was run: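 MT4-GFP cells infected with NL4-3 at low MOI for 24 h, washed, then exposed to serially diluted compound (0.4% DMSO) in RPMI. GFP+ cells counted at 24 and 48 h; R0 = 48 h/24 h ratio, inhibition normalised to DMSO and triple-drug controls, IC50 from 4-parameter fit.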

[1] = MT4-GFP cells infected with HIV-1 NL4-3, 10% normal human serum (NHS), read-out: ViKinG IP (nM) with 10% NHS
[2] = MT4-GFP cells infected with HIV-1 NL4-3, 100% normal human serum (NHS), read-out: ViKinG IP (nM) with 100% NHS
[3] = Human immunodeficiency virus 1, NL43, MT4-GFP cells infected with HIV-1 NL4-3, 10% normal human serum (NHS), read-out: ViKinG IP (nM) with 10% NHS
[4] = Human immunodeficiency virus 1, NL43, MT4-GFP cells infected with HIV-1 NL4-3, 100% normal human serum (NHS), read-out: ViKinG IP (nM) with 100% NHS
[5] = MT4-GFP cells infected with HIV-1 NL4-3, 0% normal human serum (NHS), read-out: ViKinG IP (nM) with 0% NHS
[6] = Human immunodeficiency virus 1, NL43, MT4-GFP cells infected with HIV-1 NL4-3, 0% normal human serum (NHS), read-out: ViKinG IP (nM) with 0% NHS

SMILES	IC50 [2]	IC50 [4]	IC50 [6]	other results
CN1C2CCCCN2C(=O)c2c(O)c(=O)c(-c3nnc(Cc4ccc(F)cc4)s3)cn21 (stereo not shown) [Compound 154]	1590 nM			IC50 [1]: 33.9 nM
CC1CCC2N1C(=O)c1c(O)c(=O)c(-c3nnc(Cc4ccc(F)cc4F)s3)cn1N2C (stereo not shown) [Compound 156]		989 nM		IC50 [3]: 26.7 nM
CN1C2CCCCN2C(=O)c2c(O)c(=O)c(-c3nnc(Cc4ccc(F)cc4F)s3)cn21 (stereo not shown) [Compound 157]		613 nM		IC50 [3]: 14.2 nM
CN1C2CCCCN2C(=O)c2c(O)c(=O)c(-c3nnc(Cc4ccc(F)cc4F)s3)cn21 (stereo not shown) [Compound 158]	503 nM			IC50 [1]: 17.7 nM
CN1C2COCCN2C(=O)c2c(O)c(=O)c(-c3nnc(Cc4ccc(F)cc4)s3)cn21 (stereo not shown) [Compound 161]	465 nM			IC50 [1]: 41.1 nM
CN1C2COCCN2C(=O)c2c(O)c(=O)c(-c3nnc(Cc4ccc(F)cc4)s3)cn21 (stereo not shown) [Compound 162]	186 nM			IC50 [1]: 10.8 nM
CN1C2C(O)CCCN2C(=O)c2c(O)c(=O)c(-c3nnc(Cc4ccc(F)cc4F)s3)cn21 (stereo not shown) [Compound 164]	82.2 nM			IC50 [5]: 3.48 nM
CN1C2C(O)CCCN2C(=O)c2c(O)c(=O)c(-c3nnc(Cc4ccc(F)cc4F)s3)cn21 (stereo not shown) [Compound 165]	54 nM			IC50 [5]: 5.12 nM
CN1C2C(O)CCCN2C(=O)c2c(O)c(=O)c(-c3nnc(Cc4ccc(F)cc4F)s3)cn21 (stereo not shown) [Compound 166]	162 nM			IC50 [5]: 9 nM
CN1C2C(O)CCCN2C(=O)c2c(O)c(=O)c(-c3nnc(Cc4ccc(F)cc4F)s3)cn21 (stereo not shown) [Compound 167]	41.9 nM			IC50 [5]: 2.52 nM
CCN1C(=O)c2c(O)c(=O)c(-c3nnc(Cc4ccc(F)cc4)s3)cn2N(CCOC)C1C (stereo not shown) [Compound 169]		1510 nM		IC50 [3]: 90 nM
CCN1C(=O)c2c(O)c(=O)c(-c3nnc(Cc4ccc(F)cc4)s3)cn2N(CC(=O)N(C)C)C1(C)C [Compound 171]		673 nM		IC50 [3]: 21 nM
COCCN1C(=O)c2c(O)c(=O)c(-c3nnc(Cc4ccc(F)cc4F)s3)cn2N(C)C12CCC2 [Compound 173]		526 nM	7 nM	
CN1C(=O)c2c(O)c(=O)c(C(=O)NCc3ccc(F)cc3F)cn2CC12CC2 [Compound 174]		125 nM	2.87 nM	
C[C@H]1n2cc(C(=O)NCc3ccc(F)cc3F)c(=O)c(O)c2C(=O)N(C)C12CC2 [Compound 175]		37.1 nM	1.54 nM	
C[C@@H]1n2cc(C(=O)NCc3ccc(F)cc3F)c(=O)c(O)c2C(=O)N(C)C12CC2 [Compound 176]		39 nM	2.12 nM	
COCCN1C(=O)c2c(O)c(=O)c(C(=O)NCc3ccc(F)cc3F)cn2CC12CCC2 [Compound 177]		4790 nM	5.03 nM	
CN1C(=O)c2c(O)c(=O)c(C(=O)NCc3ccc(F)cc3F)cn2CC12CCC2 [Compound 178]		233 nM	2.73 nM	
CCN1C(=O)c2c(O)c(=O)c(C(=O)NCc3ccc(F)cc3F)cn2CC12CC2 [Compound 179]		1360 nM	2.86 nM	
COCCN1C(=O)c2c(O)c(=O)c(C(=O)NCc3ccc(F)cc3F)cn2CC12CC2 [Compound 180]		611 nM	1.8 nM	
COC1CCC2(CC1)Cn1cc(C(=O)NCc3ccc(F)cc3F)c(=O)c(O)c1C(=O)N2C (stereo not shown) [Compound 181]		28.9 nM	2.48 nM	
CCOC1CCC2(CC1)Cn1cc(C(=O)NCc3ccc(F)cc3F)c(=O)c(O)c1C(=O)N2CC (stereo not shown) [Compound 182]		45.5 nM	4.02 nM	
COCCN1C(=O)c2c(O)c(=O)c(C(=O)NCc3ccc(F)cc3F)cn2[C@@H](C)C12CC2 [Compound 183]		188 nM	3.17 nM	

SMILES	IC50 [2]	IC50 [4]	IC50 [6]	other results
COCCN1C(=O)c2c(O)c(=O)c(C(=O)NCc3ccc(F)cc3)cn2[C@@H](C)C12CC2 [Compound 184]		178 nM	2.66 nM	
COCCN1C(=O)c2c(O)c(=O)c(C(=O)NCc3ccc(F)c(F)c3F)cn2[C@@H](C)C12CC2 [Compound 185]		212 nM	2.2 nM	
CN1C(=O)c2c(O)c(=O)c(C(=O)NCc3ccc(F)cc3F)cn2N(C)[C@]12CC[C@@H]1C[C@@H]12 [Compound 186]		283 nM	1.74 nM	
CN1C(=O)c2c(O)c(=O)c(C(=O)NCc3ccc(F)cc3F)cn2N(C)[C@@]12CC[C@@H]1C[C@@H]12 [Compound 187]		502 nM	3.64 nM	
CCN1C(=O)c2c(O)c(=O)c(C(=O)NCc3ccc(F)cc3F)cn2N(C)C12CC[C@@H]1C[C@@H]12 (stereo partly shown) [Compound 188]		406 nM	1.49 nM	
CCN1C(=O)c2c(O)c(=O)c(C(=O)NCc3ccc(F)cc3F)cn2N(C)[C@@]12CC[C@@H]1C[C@@H]12 [Compound 189]		626 nM	3.62 nM	
COCCN1C(=O)c2c(O)c(=O)c(C(=O)NCc3ccc(F)cc3F)cn2N(C)C12CC[C@@H]1C[C@@H]12 (stereo partly shown) [Compound 190]		2910 nM	29 nM	
CCOC1CCC2(CC1)N(CC)C(=O)c1c(O)c(=O)c(C(=O)NCc3ccc(F)cc3F)cn1N2C (stereo not shown) [Compound 191]	239 nM		6.74 nM	
CCOC1CCC2(CC1)N(CC)C(=O)c1c(O)c(=O)c(C(=O)NCc3ccc(F)cc3F)cn1N2C (stereo not shown) [Compound 192]	67.2 nM			IC50 [5]: 3.66 nM
CCCOC1CCC2(CC1)N(CC)C(=O)c1c(O)c(=O)c(C(=O)NCc3ccc(F)cc3F)cn1N2C (stereo not shown) [Compound 193]	84.8 nM			IC50 [5]: 8.24 nM
CCCOC1CCC2(CC1)N(CC)C(=O)c1c(O)c(=O)c(C(=O)NCc3ccc(F)cc3F)cn1N2C (stereo not shown) [Compound 194]	400 nM			IC50 [5]: 25 nM
CN1C(=O)c2c(O)c(=O)c(-c3nnc(Cc4ccc(F)cc4F)s3)cn2N(C)C12CC[C@@H]1C[C@@]12CO (stereo partly shown) [Compound 195]	190 nM		2.02 nM	
CN1n2cc(-c3nnc(Cc4ccc(F)cc4F)s3)c(=O)c(O)c2C(=O)NC12CC[C@@H]1C[C@@H]12 (stereo partly shown) [Compound 196]		307 nM	1.61 nM	
COC(=O)[C@]12C[C@H]1CCC21N(C)C(=O)c2c(O)c(=O)c(-c3nnc(C(C)c4ccc(F)cc4F)s3)cn2N1C (stereo partly shown) [Compound 206]			15.4 nM	IC50 [3]: 62.4 nM
O=C1NC2(CCC2)Cn2cc(-c3nnc(Cc4ccc(F)cc4F)s3)c(=O)c(O)c21 [Compound 210]			4.11 nM	IC50 [3]: 68.4 nM
CCN1C(=O)c2c(O)c(=O)c(-c3nnc(Cc4ccc(F)cc4F)s3)cn2CC12CCC2 [Compound 211]		2800 nM	10.3 nM	
COC1CCC2(CC1)Cn1cc(-c3nnc(Cc4ccc(F)cc4F)s3)c(=O)c(O)c1C(=O)N2C (stereo not shown) [Compound 212]	90.7 nM		3.49 nM	
COC1CCC2(CC1)Cn1cc(-c3nnc(Cc4ccc(F)cc4F)s3)c(=O)c(O)c1C(=O)N2C (stereo not shown) [Compound 213]	35.8 nM			IC50 [5]: 5.89 nM
COCCN1C(=O)c2c(O)c(=O)c(-c3cn(Cc4ccc(F)cc4F)nn3)cn2CC12CCC2 [Compound 214]		205 nM	24.4 nM	
CN1C(=O)c2c(O)c(=O)c(-c3cn(Cc4ccc(F)cc4F)nn3)cn2CC12CCC2 [Compound 215]		76.1 nM	9.93 nM	
CCN1C(=O)c2c(O)c(=O)c(-c3cn(Cc4ccc(F)cc4F)nn3)cn2CC12CCC2 [Compound 216]		332 nM	13.2 nM	
CCN1C(=O)c2c(O)c(=O)c(-c3nnc(Cc4ccc(F)cc4)s3)cn2N(C)C12CCCCC2 [Compound 222]			1.28 nM	
CCN1C(=O)c2c(O)c(=O)c(-c3nnc(Cc4ccc(F)cc4)s3)cn2N(C)C12CC(C(=O)OC)C2 (stereo not shown) [Compound 224]		361 nM		IC50 [3]: 49.3 nM

Source: patent US9714243B2, “4-pyridinonetriazine derivatives as HIV integrase inhibitors” (Merck Sharp & Dohme Corp., priority 2012, dated 2017)
